Where “and” joins values, the source holds several entries; their conditions need not be identical. Equal values may be shown once. Read-outs that look alike come from different tables or passages of the source.
Legend:
[1] = target: T1, wild-type mouse Pgp (MDR3) (Mus musculus, UniProt P21447); assay: Pgp-mediated ATPase activity (Chifflet colorimetric Pi assay, proteoliposomes)
Method: Overexpression of wild-type mouse Pgp (MDR3) was achieved by using genetically engineered strains of Pichia pastoris with a 6X histidine tag. The cells were cultured in glycerol media, and methanol was used to induce the overexpression of Pgp at the Bioexpression and Fermentation Facility (BFF), University of Georgia, Athens, GA, USA. A repeated cycle of freezing using liquid nitrogen, blending, and thawing was used to lyse the Pgp-expressing P. pastoris cells. The protein was purified using affinity chromatography with nickel-nitrilotriacetic acid (Ni-NTA) resin (Thermo Fisher Scientific, Waltham, MA, USA). DDM was used to solubilize the protein, and the solution was concentrated using Amicon Ultra-15 100 kDa cut-off filters (EMD Millipore, Billerica, MA, USA). […] The purified DDM-solubilized Pgp was aliquoted and stored at −80 °C for future analysis.
Pgp was reconstituted into liposomes as previously described. Briefly, liposomes comprising 80% (w/v) Avanti Escherichia coli total lipid extract and 20% (w/v) cholesterol were dissolved in chloroform to achieve a final concentration of 10 mg mL^−1, and the volume was adjusted to 10 mL. […] The solution was subjected to ten cycles of freeze–thaw using liquid nitrogen and a water bath (67 °C), resulting in the formation of liposomes with varying sizes, and extruded eleven times in a LIPEX extruder (Northern Lipids, Burnaby, BC, Canada) to produce identical-sized liposomes, using a 400 nm cut-off filter.
(§1) Approximately 40 µL of DDM-solubilized Pgp was dialyzed for two hours against HEPES buffer (20 mM HEPES, 100 mM NaCl, 5 mM MgCl2, 2 mM DTT, pH 7.4) to remove any remnants of the detergent, DDM. The dialyzed protein was mixed with 4 mg mL^−1 of the extruded liposomes and incubated on ice for at least one hour to allow Pgp to integrate into the liposomes. To remove any additional detergent and further facilitate Pgp integration into the liposome, the solution was dialyzed for a second time for two hours in HEPES buffer to form proteoliposomes, and the concentration of Pgp reconstituted in liposomes was determined using the Bio-Rad DC Protein assay. Finally, the solution was aliquoted and stored at −80 °C for future use.
The Chifflet method is a colorimetric method that measures the amount of free inorganic phosphate (Pi) through the formation of ammonium molybdate and Pi complex, which produces a strong absorbance at 850 nm. The absorbance was measured on a 96-well plate using a CLARIOstar microplate reader (BMG Labtech, Ortenberg, Germany). […] The final concentrations of the proteoliposome and ATP were maintained at 50 nM and 3.2 mM, respectively. Orthovanadate was used as a control and run in parallel to the samples. Finally, the kinetic curves for ATPase activity were fit to a modified Michaelis-Menten equation (Equation (1)). Igor 6.2 Pro software (Wavemetrics, Tigard, OR, USA) was used for data analysis.(1) V=VmaxS/Km+S+Vbasal where V = Rate of ATP hydrolysis; Vmax = Maximum velocity of ATP hydrolysis; [S] = Substrate concentration; Km = Michaelis–Menten constant; and Vbasal = basal ATPase activity.

[2] = target: T1, wild-type mouse Pgp (MDR3)
Method: Overexpression of wild-type mouse Pgp (MDR3) was achieved by using genetically engineered strains of Pichia pastoris with a 6X histidine tag. The cells were cultured in glycerol media, and methanol was used to induce the overexpression of Pgp at the Bioexpression and Fermentation Facility (BFF), University of Georgia, Athens, GA, USA. A repeated cycle of freezing using liquid nitrogen, blending, and thawing was used to lyse the Pgp-expressing P. pastoris cells. The protein was purified using affinity chromatography with nickel-nitrilotriacetic acid (Ni-NTA) resin (Thermo Fisher Scientific, Waltham, MA, USA). DDM was used to solubilize the protein, and the solution was concentrated using Amicon Ultra-15 100 kDa cut-off filters (EMD Millipore, Billerica, MA, USA). The concentration of purified protein was measured at 280 nm using a calculated extinction coefficient of 1.28 per mg mL^−1 on a Nanodrop (DeNovix, Wilmington, DE, USA). […] The purified DDM-solubilized Pgp was aliquoted and stored at −80 °C for future analysis.
as §1
Acrylamide, an aqueous collisional quencher, can be used to determine the changes in conformation upon Pgp-drug interaction. The principle of this technique is that as the drug interacts with the protein, the conformation of the accessible tryptophan residues in the protein also changes, resulting in a shift in fluorescence intensity. For this experiment, to measure the fluorescence of Pgp reconstituted in liposomes, in the presence (250 µM) or absence of drug(s), the excitation and emission wavelengths used were 295 nm and 330 nm, respectively. The proteoliposomes were diluted to a final concentration of 1 µM in Chifflet buffer (pH 7.4) containing 2 mM DTT, and it was titrated against an increasing concentration of acrylamide. A concentration of 11 µM N-acetyl-L-tryptophanamide (NATA), an analog of tryptophan, was used as a positive control to determine non-specific quenching. A saturated concentration of AMPPNP (3.2 mM), a non-hydrolysable form of ATP, was used to generate an outward-open conformation of Pgp. All the experiments for acrylamide quenching were performed at 21 °C. To correct the fluorescence intensities for background, dilution, and inner filter effects, […] was used. A Stern–Volmer plot was constructed with F0(corrected)/F(corrected) versus acrylamide concentration. The slope of the curve determined the degree of quenching, and it was related to the Stern–Volmer constant (Ksv) by Equation (4), as follows:(4) Focorrected/Fcorrected=1+KsvQ where F0(corrected)/F(corrected) = Stern–Volmer plot; Ksv = Stern–Volmer constant; and [Q] = acrylamide concentration.

[3] = 250 µM drug, 3.2 mM AMPPNP, 21 °C
[4] = 250 µM drug, 3.2 mM AMPPNP, inferred from Ksv
[5] = 250 µM drug, absence of AMPPNP, 21 °C, apo-Pgp 2.5 ± 0.04
[6] = 250 µM drug, no AMPPNP, inferred from Ksv

T1 sequence (P21447 whole entry): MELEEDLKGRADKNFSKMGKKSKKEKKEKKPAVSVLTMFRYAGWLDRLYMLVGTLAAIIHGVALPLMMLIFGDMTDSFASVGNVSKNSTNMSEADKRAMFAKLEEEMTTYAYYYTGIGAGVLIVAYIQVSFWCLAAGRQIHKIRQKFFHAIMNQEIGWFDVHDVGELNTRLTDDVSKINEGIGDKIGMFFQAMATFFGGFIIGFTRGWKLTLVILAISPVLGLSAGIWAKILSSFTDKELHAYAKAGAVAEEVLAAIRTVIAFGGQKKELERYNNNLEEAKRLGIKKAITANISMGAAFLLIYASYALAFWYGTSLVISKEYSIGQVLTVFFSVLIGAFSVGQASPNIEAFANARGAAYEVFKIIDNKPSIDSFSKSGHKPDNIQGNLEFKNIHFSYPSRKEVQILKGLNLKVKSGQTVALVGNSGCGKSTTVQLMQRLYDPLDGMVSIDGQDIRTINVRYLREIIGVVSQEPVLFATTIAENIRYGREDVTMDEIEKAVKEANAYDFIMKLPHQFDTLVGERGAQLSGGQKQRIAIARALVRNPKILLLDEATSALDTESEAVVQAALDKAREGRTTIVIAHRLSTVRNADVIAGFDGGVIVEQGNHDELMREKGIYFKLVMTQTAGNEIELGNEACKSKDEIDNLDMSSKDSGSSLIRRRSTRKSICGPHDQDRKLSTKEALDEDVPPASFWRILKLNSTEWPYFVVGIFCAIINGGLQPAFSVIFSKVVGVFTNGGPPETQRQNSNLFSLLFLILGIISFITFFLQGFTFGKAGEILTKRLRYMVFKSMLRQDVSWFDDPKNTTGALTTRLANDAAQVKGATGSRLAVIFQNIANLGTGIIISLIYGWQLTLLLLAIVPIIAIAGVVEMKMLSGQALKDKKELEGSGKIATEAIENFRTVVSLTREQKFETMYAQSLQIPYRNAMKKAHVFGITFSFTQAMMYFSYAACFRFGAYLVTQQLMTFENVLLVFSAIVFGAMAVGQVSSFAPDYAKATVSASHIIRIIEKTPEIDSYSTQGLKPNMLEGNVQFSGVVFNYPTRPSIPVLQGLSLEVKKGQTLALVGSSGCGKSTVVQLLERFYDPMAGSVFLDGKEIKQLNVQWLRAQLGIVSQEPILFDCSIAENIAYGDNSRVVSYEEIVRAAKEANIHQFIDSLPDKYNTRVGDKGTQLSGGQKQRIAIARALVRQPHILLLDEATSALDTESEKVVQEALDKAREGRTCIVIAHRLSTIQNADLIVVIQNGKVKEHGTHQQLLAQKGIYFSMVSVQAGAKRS

| SMILES | Effect on Pgp's ATPase hydrolytic activity relative to basal ([1]; in words) | Drug-induced Ksv of Pgp (acrylamide quenching), AMPPNP (+) [2, 3] [M⁻¹] | Pgp conformation with drug in the presence of a nucleotide [2, 4] | Drug-induced Ksv of Pgp (acrylamide quenching), AMPPNP (-) [2, 5] [M⁻¹] | Pgp conformation upon drug binding in the absence of a nucleotide [2, 6] | Vmax of CG-induced Pgp-mediated ATP hydrolysis ([1]; relative to the offset (basal activity), 37 °C, 3.2 mM ATP, 50 nM proteoliposome, modified Michaelis-Menten fit) [nmol/min/mg] | Drug-induced Ksv of Pgp (acrylamide quenching), AMPPNP (+) ([2]; 250 µM drug, 3.2 mM AMPPNP, 21 °C, listed as digitoxigenin) | Effect on Pgp's ATPase hydrolytic activity relative to basal [1] | Vmax of CG-induced Pgp-mediated ATP hydrolysis [1] | Drug-induced Ksv of Pgp (acrylamide quenching), AMPPNP (+) [2] | Drug-induced Ksv of Pgp (acrylamide quenching), AMPPNP (-) [2] | Pgp conformation upon drug binding in the absence of a nucleotide [2] | Pgp conformation with drug in the presence of a nucleotide [2] |
| --- | --- | --- | --- | --- | --- | --- | --- | --- | --- | --- | --- | --- | --- |
| C[C@]12CC[C@H](O)C[C@H]1CC[C@@H]1[C@@H]2C[C@@H](O)[C@]2(C)[C@@H](C3=CC(=O)OC3)CC[C@]12O [Digoxigenin, 3β,12β,14-Trihydroxy-5β,20(22)-cardenolide] | induced | 1.70 ± 0.01 | outward open | 2.26 ± 0.04 | intermediate |  |  |  |  |  |  |  |  |
| C[C@]12CC[C@H](O)C[C@H]1CC[C@@H]1[C@@H]2CC[C@]2(C)[C@@H](C3=CC(=O)OC3)CC[C@]12O [Digitoxigenin, (3β,5β)-3,14-Dihydroxy-card-20(22)-enolide] | induced | 1.51 ± 0.02 | outward open | 1.91 ± 0.04 | intermediate | 216.02 ± 16.01 | 1.51 ± 0.02 M⁻¹ and 1.51 ± 0.01 M⁻¹ |  |  |  |  |  |  |
| C[C@H]1O[C@@H](O[C@H]2[C@@H](O)C[C@H](O[C@H]3[C@@H](O)C[C@H](O[C@H]4CC[C@@]5(C)[C@H](CC[C@@H]6[C@@H]5C[C@@H](O)[C@]5(C)[C@@H](C7=CC(=O)OC7)CC[C@]65O)C4)O[C@@H]3C)O[C@@H]2C)C[C@H](O)[C@@H]1O [Digoxin] |  |  |  |  |  |  |  | induced | 277.53 ± 7.24 nmol min^−1 mg^−1 and 277.53 ± 7.24 | 1.51 ± 0.02 and 1.51 ± 0.02 M^−1 | 2.55 ± 0.06 and 2.55 ± 0.06 M^−1 | no effect | outward open |

From publication PMC12386283, “Elucidating the Complex Structural and Molecular Mechanisms Driving P-Glycoprotein-Mediated Transport of Cardiac Glycosides” (International Journal of Molecular Sciences, 2025)
